Results as given in PubChem BioAssay AID2305 (GlaxoSmithKline (GSK), 2010).

These compounds were tested on P. falciparum 3D7 growth, pLDH absorbance (assay: P. falciparum 3D7 growth inhibition, dose response, strain 3D7 (AID 2305)).

Compound	IC50
CC(C)(C)Nc1cc(C(=O)N[C@@H](Cc2ccccc2)[C@H](O)CNC2CCOCC2)cc(N2CCCCS2(=O)=O)c1	150 nM
COc1ccc2nccc(NCC3(O)CCC(NCc4cc5c(cn4)OCCO5)CC3)c2n1 (centres undefined)	660 nM
O=C(NCC(CCCN1CCC(c2c[nH]c3ccccc23)CC1)c1ccccc1)Nc1ccc(Cl)c(Cl)c1 (centres undefined)	790 nM
O=C(/C=C/c1ccc(Cl)c(Cl)c1)N1CCC(CCCN2CCC(c3c[nH]c4ccccc34)CC2)CC1	710 nM
COc1cccc(NC(=O)NCCNc2ccnc(Nc3ccc(F)cc3)n2)c1	920 nM
CCC1CCCCN1S(=O)(=O)c1ccc(OC)c(N2CCN(C(=O)C(Cl)(Cl)Cl)CC2)c1 (centres undefined)	1120 nM
CNCc1cccc2[nH]c(-c3ccc(Cc4cc(Cl)ccc4OCC(C)C)o3)nc12	900 nM
COc1cc(Cc2cnc(N)nc2N)cc(CC(C)O)c1O (centres undefined)	840 nM
CCCn1c(Sc2ccc(C#N)c([N+](=O)[O-])c2)nnc1-c1ccc(Cl)cc1	540 nM
Cn1nccc1C(=O)NCCNCc1cccc(-c2ccc(-c3nc4ccccc4[nH]3)cc2)c1	470 nM
CS(=O)(=O)c1ccc(CNCc2cccc(-c3cccc(-c4nc5ccc(C(F)(F)F)cc5[nH]4)c3)c2)cc1	180 nM
O=C(NCCCc1ccccc1)c1ccc(O)c(-c2cc(Cl)cc(Cl)c2)c1	570 nM
Cc1cc(NC(=O)c2cccs2)ccc1OC1CCN(Cc2ccc(C#N)cc2)C1 (centres undefined)	850 nM
O=C(Nc1cccc(C(F)(F)F)c1)Nc1ccc(Cl)c(Cl)c1	740 nM
CS(=O)(=O)N1CC2(CCN(CCC(NC(=S)Nc3ccccc3)c3ccc(Cl)c(Cl)c3)CC2)c2ccccc21 (centres undefined)	830 nM
Cc1cc(C)c(S(=O)(=O)N2CCCCC(c3cccc(C(F)(F)F)c3)=N2)c(C)c1	460 nM
COC(=O)c1ccc(CC(C)NCC(O)c2ccc(C(O)CNC(C)Cc3ccc(C(=O)OC)cc3)cc2)cc1 (centres undefined)	1030 nM
CCCn1c(Sc2ccc(C#N)c([N+](=O)[O-])c2)nnc1-c1ccc(OC)cc1	860 nM
Cc1nnsc1C(=O)Nc1ccc(-c2cccc(-c3nc4c(C)cccc4[nH]3)c2)cc1	630 nM
O=C(/C=C/c1ccc(Cl)c(Cl)c1)NCCCCN1CCCN(C(=O)Nc2ccc(C(F)(F)F)cc2)CC1	850 nM
COc1cccc2c(C)cc(NCc3ccc(Cl)cc3)nc12	860 nM
O=C(/C=C/c1ccc(Cl)c(Cl)c1)NCCCCCN1CCC(NC(=O)NCCc2ccccc2)CC1	720 nM
CC[C@@]1(O)C(=O)OCc2c1cc1n(c2=O)Cc2c-1nc1cc3c(cc1c2CN1CCOCC1)OCO3	960 nM
Cc1cc(-c2ccc(CN3Cc4ccccc4C3)cc2)ccc1S(=O)(=O)NCCN1CCCC1	970 nM
CC(=O)C1(c2ccccc2)CCN(CCC2(c3ccc(Cl)c(Cl)c3)CN(C(=O)C3CCCCC3)CCO2)CC1 (centres undefined)	310 nM

Compound	IC50
Cc1ccc(C)c(S(=O)(=O)NCC2CCN(Cc3ccc(O)cc3)CC2)c1	980 nM
CS(=O)(=O)c1ccc(CCNCc2ccc(-c3ccc(CN(C(=O)C4CCCC4)C4CCN(Cc5ccccc5)CC4)cc3)nc2)cc1	830 nM
CC(C)(C)c1cc(C(=O)N2CCC(c3ccccn3)CC2)n(Cc2ccccc2)n1	960 nM
CCc1c(C)nc2nc(Cc3cccc(F)c3)nn2c1N1CCN(c2ccccn2)CC1	750 nM
CC(C)(C)c1ccc(CNC(=O)c2ccc(-c3nc4ccc(C(C)(C)C)cc4[nH]3)cc2)cc1	840 nM
O=C(Oc1ccc(C2CNCCc3c2cc(OC(=O)c2ccc(O)cc2)c(OC(=O)c2ccc(O)cc2)c3Cl)cc1)c1ccc(O)cc1 (centres undefined)	980 nM
CC(C)COc1ccc(Cl)cc1Cc1ccc(-c2nc3ccc(C(F)(F)F)cc3[nH]2)o1	850 nM
O=C(N[C@@H](Cc1ccccc1)C(=O)NCCN1CCCCC1)c1ccc(O)c(-c2ccc(Cl)c(Cl)c2)c1	1520 nM
CCOc1cc(Cc2cnc(N)nc2N)cc(OCC)c1OCC	280 nM
Cc1ccc(-c2nc(Nc3ccncc3)c3ccccc3n2)s1	830 nM
CCN(CC(C)O)C(=O)c1ccc(-c2ccc(-c3nc4c(C)cccc4[nH]3)cc2)cc1 (centres undefined)	840 nM
Cn1c(C2C[C@H]3CC[C@H](C2)N3CC2CCC(NC(=O)/C=C/c3ccc(Cl)c(Cl)c3)CC2)nc2ccccc21 (some centres undefined)	560 nM
Oc1ccc(CNCCCCCCNCCc2ccc(Cl)cc2)cc1O	990 nM
Oc1c(C(Nc2ccccn2)c2ccco2)cc(Cl)c2cccnc12 (centres undefined)	1010 nM
CN(CCS(C)(=O)=O)Cc1ccc(-c2ccc3ncnc(Nc4ccc(OCc5cccc(F)c5)c(Cl)c4)c3c2)o1	680 nM
COc1ccccc1N1CCN(Cc2cc(C(C)C)c(C)cc2O)CC1	570 nM
O=C(/C=C/c1ccc(Cl)c(Cl)c1)NCCCCCCN1CCCN(C(=O)Nc2cccc(Cl)c2)CC1	860 nM
COc1ccccc1N1CCN(C(C(=O)NCc2ccc(C)cc2)c2ccc(C)cc2)CC1 (centres undefined)	930 nM
CCC(CC)N1C(=O)C(c2ccccc2)(c2ccccc2)N=C1N	800 nM
COc1cccc(C(=O)NCCc2cccc(Cl)c2)c1Oc1ccccc1	840 nM
O=c1[nH]c2ccc(Nc3nccc(NCCc4ccccc4)n3)cc2[nH]1	1210 nM
CS(=O)(=O)Nc1ccc(OCCCCCCOc2ccc(NS(C)(=O)=O)cc2)cc1	490 nM
CCCc1c(C(=O)OCC)c2cc(O)ccc2n1-c1ccc(OC)cc1	140 nM
CC(C)N1CCN(C(=O)c2ccc(CNCCCN3CCN(c4cccc(Cl)c4Cl)CC3)o2)CC1	740 nM
CCCCCCCc1c(C)[nH]c2ccc(F)cc2c1=O	290 nM

Compound	IC50
CC(=O)Nc1nc(C(=O)Nc2ccc(-c3cccc(-c4nc5ccc(F)cc5[nH]4)c3)cc2)cs1	290 nM
Cc1ccccc1CNC(=O)Nc1cccc(-c2csc(N=C(N)N)n2)c1	700 nM
NC(=O)c1ccccc1Nc1nc(Nc2cccc(N3CCN(CCO)CC3)c2)ncc1Cl	40 nM
COc1cc(-c2cc(-c3ccc(S(C)(=O)=O)cc3)cnc2N)ccc1O	100 nM
CN(Cc1c(Cl)cnn1C)S(=O)(=O)c1ccc2ccccc2c1	1040 nM
Oc1ccc(CCNc2nc(NCCCOc3ccccc3-c3ccncc3)nc(N3CCNCC3)n2)cc1	1110 nM
Cc1c(CNCCCNc2cc(=O)c3ccccc3[nH]2)sc(-c2ccco2)c1Br	1020 nM
O=C(Cc1cc(=O)oc2cc(O)ccc12)NC1CCC(CN2CCC(c3c[nH]c4ccccc34)CC2)CC1 (centres undefined)	1130 nM
CC(Cl)=CCc1c(C)[nH]c2c(ccc3ccccc32)c1=O	200 nM
O=[N+]([O-])c1ccc2c(-c3ccccc3)c(-c3ccccc3)n(O)c2c1	990 nM
COc1ccccc1CNC(=O)C(=O)Nc1c(-c2ccccc2)[nH]c2ccccc12	740 nM
Cc1ccc(CC(C)NCC(O)c2cccc(Br)c2)cc1 (centres undefined)	800 nM
NC(N)=NN=C1C=Cc2cccc3cccc1c23	610 nM
CCCCc1ccc2[nH]cc(C3=CCN(C)CC3)c2c1Br	630 nM
CC=CCON1C(N)=NC(N)=NC1(C)C	30 nM
CC(=O)c1ccc(S(=O)(=O)N2CCC(C(=O)Nc3ccccc3N3CCCC3)CC2)cc1	830 nM
CC(C)c1ccc(S(=O)(=O)Nc2cccc(CCN3CCC(N4CCCCC4)CC3)c2)cc1	1120 nM
CN(C)CCCNCc1ccc(-c2ccc(CNCCOc3ccccc3)cc2)cc1	20 nM
COc1cc(NC(=O)c2c(-c3c(F)cccc3Cl)noc2C)c(OC)cc1Cl	860 nM
Cc1ccccc1NC(=S)NC1CCN(CCCCCNC(=O)/C=C/c2ccc(Cl)c(Cl)c2)CC1	790 nM
N#Cc1ccc(/C=C/C(=O)NCCCCCN2CCN(C(=O)Nc3ccc(Cl)c(C(F)(F)F)c3)CC2)cc1	780 nM
Cc1ccc(CN(Cc2ccc(C(=O)N(C)C)cc2)Cc2ccc3c(c2)OCCO3)cc1C	800 nM
CC(Cc1ccc(OCc2ccc(CCN(C)C)cc2)cc1)NCCc1cccc(Cl)c1 (centres undefined)	770 nM
CC(=NN=C(N)N)c1ccc2c(c1)Cc1ccccc1-2	1410 nM
CNC(=O)Cc1ccc(C(=O)Nc2cccc(-c3cccc(-c4nc5c(C)cccc5[nH]4)c3)c2)cc1	530 nM

Compound	IC50
CCOc1cc(C)ccc1C1CCN(CCCCNC(=O)c2coc(-c3ccc(Cl)cc3)c2)CC1	910 nM
Fc1ccc2nc(-c3cccc(-c4ccc(CNCC5CCCO5)cc4)c3)[nH]c2c1 (centres undefined)	540 nM
CC(C)(C)c1ccc2nc(-c3ccc(/C=C/C(=O)NCc4ccc(Cl)c(Cl)c4)cc3)[nH]c2c1	40 nM
COc1ccc2nccc(NN=Cc3ccccc3)c2c1	110 nM
O=C(Nc1ccccc1-c1nc2ccccc2s1)C(Cl)(Cl)Cl	640 nM
COc1ccc(NC(=O)[C@H](CC(C)C)Nc2cc(C)nc(NCc3cccc(C)c3)n2)cc1	1020 nM
NC(N)=Nc1nc(-c2cccc(NC(=O)Cc3ccccc3)c2)cs1	1000 nM
COc1ccc(-c2cccc(NC(=O)c3cccc(Cl)c3)c2)cc1CN1CCNCC1	800 nM
CCc1c(CCNCCCCCCNCCc2ccc3c(c2C)OCO3)ccc2c1OCO2	610 nM
CC(C)(C)C1CCC(C(=O)c2ccc3ccccc3c2O)CC1 (centres undefined)	750 nM
COc1ccc(-n2nc(C(=O)NCCC3=CCCCC3)c3ccccc3c2=O)cc1	680 nM
Cc1cc(NC(=O)NCCN2CCC(NS(=O)(=O)c3ccc(C(F)(F)F)cc3)C2)c2ccccc2n1 (centres undefined)	650 nM
C=C[C@]1(C)C[C@@H](OC(=O)NC(=O)C2CCN(C(=O)CSc3ccccc3)CC2)[C@]2(C)[C@H](C)CC[C@]3(CCC(=O)[C@H]32)[C@@H](C)[C@@H]1O	1010 nM
CCOc1cc(NCCCNc2ncc([N+](=O)[O-])cc2C)nc2ccccc12	690 nM
Cc1c(CC(=O)N(C)C2CCN(CCCCCNC(=O)/C=C/c3ccc(Cl)c(Cl)c3)CC2)sc2ccc(Cl)cc12	1160 nM
CC(C)[C@H](NC(=O)c1c(F)cccc1F)C(=O)Nc1ccc(Cc2nc3ccccc3s2)cc1	500 nM
O=C(NCc1ccccc1)NC1CCN(c2ccnc3cc(Cl)ccc23)C1 (centres undefined)	160 nM
CCCc1ccc(S(=O)(=O)Nc2ccc3c(c2)CCC3)cc1	880 nM
COc1ccc2nccc([C@@H](O)CN3CCC(NCc4cc5cccc(O)c5c(=O)[nH]4)CC3)c2c1	390 nM
NC(N)=NN=Cc1ccccc1OCc1ccccc1Cl	720 nM
CCNc1cc(C(=O)N[C@@H](Cc2ccccc2)[C@H](O)CN[C@@H](C)c2ccccc2)cc(N2CCCC2=O)c1	670 nM
CCCCCCN(CCCCCC)CC(O)c1cc(-c2ccc(Cl)cc2)nc2c(C)cc(C)cc12 (centres undefined)	70 nM
Nc1ncc(-c2ccccc2)cc1-c1nc2cc(Cl)c(F)cc2[nH]1	260 nM
CCOc1ccc(Br)cc1/C=C/C(=O)Nc1ccc2c(c1)[C@@H]1CC[C@H]2N1C	1050 nM
